Patent US11529319B2, “Methods and compositions for treating neurological conditions” (priority 2017, dated 2022)

Experiments:
[1] = system: p38 MAPK/MAPKAPK2/TSC2/mTORC1/S6K1 cascade; test: Western blots of eNMDAR-triggered signaling; format: cell-based; conditions: 10 μM
Description: This experiment was replicated 4 times with similar results and quantified in FIG. 20C.

[2] = Fung and Hardan 2015; cited from earlier work
Tsc2+/- mice [3] = test: Fear conditioning test; format: in vivo, mouse; conditions: two-and-a-half-day treatment, last dose 3 hours before training
Description: (§1) To determine the effects of eNMDAR antagonists on the brain histology of Tsc2^+/− mice, quantitative confocal immunohistochemistry was used to analyze coronal brain slices from 3-month-old wild-type (WT) and Tsc2^+/− mice that had been treated for two and a half days with vehicle, memantine or NitroSynapsin. Tsc2+/− mice on the C57Bl/6J background received via the intraperitoneal route either vehicle or a loading dose of 92 μmol/kg of memantine or NitroSynapsin, followed by 4.6 μmol/kg of drug twice daily for two-and-a-half-days, with the last dose 3 hours prior to the behavioral training session (for a total of five drug injections). This dosing regimen yields an effective concentration of drug at NMDARs in the brain of 1-10 μM.
Fear conditioning tests were performed on three-month-old Tsc2^+/+ and Tsc2^+/− mice to explore the effects of eNMDAR antagonists on anxiety, and learning and memory deficits in Tsc2^+/− mice. Vehicle, memantine or NitroSynapsin were administered for two and a half days, with the last dose of drug occurring 3-hours prior to the first training session. […] Freezing time of three-month-old WT and Tsc2^+/− transgenic mice treated with vehicle, memantine or NitroSynapsin in fear-conditioning trials. […] Values are mean+s.e.m. (n=7-12 mice per group). […]

Mef2c-het mice = test: Immunohistochemistry and stereological cell counting in hippocampus after chronic treatment; format: in vivo, mouse; conditions: optical dissector
Description: Mef2c heterozygous knockout (Mef2c-het) mice were created by crossing mice carrying the conventional exon 2-deleted allele of Mef2c (Mef2c^Δ2) with their WT littermates. All procedures for maintaining and using these mice were approved by the Institutional Animal Care and Use Committee (IACUC) at the Sanford Burnham Prebys Medical Discovery Institute. In this study, only male mice were used for the behavioral assays to insure uniformity (either with or without drug treatment). Chronic treatment with memantine, NitroSynapsin (both at 4.6 μmol/kg body weight) or vehicle (PBS) was administered via i.p. injection, twice a day for at least 3 months, starting at ˜2.5 weeks of age. This age was chosen because mice are still juveniles and thus treatment could begin in human at an equivalent stage.
Mice were perfused with PBS buffer and then 2% paraformaldehyde in PBS (PFA).
After perfusion, brains were removed and placed into 2% PFA overnight for post-fixation and then sunk in 30% sucrose in PBS prior to freezing. Cryostat sections were cut at a thickness of 15 μm. Sections were soaked in Antigen Unmasking Solution (Vector) and microwaved for 30 s, followed by permeabilization with 0.25% Triton X-100 in PBS for 15 min. Primary antibodies were incubated for 16 h at 4° C. and fluorescence-conjugated secondary antibodies for 2 h at 25° C. Numerous unstained cells in each field served as an internal control for staining specificity. Primary antibodies included: NeuN (mouse, EMD Millipore), activated caspase-3 (rabbit, Cell Signaling), VGLUT1 (guinea pig, SYSY), VGLUT2 (rabbit, SYSY), VGAT (mouse, SYSY), synaptophysin (mouse, Sigma), GFAP (mouse, Sigma), PCNA (mouse, Santa Cruz), DCX (goat, Santa Cruz). TUNEL assay was performed to assess apoptosis using the Roche In Situ Cell Death Detection Kit per vender's instruction. The number of cells positive or percent area occupied by NeuN, activated caspase-3, TUNEL, GFAP, PCNA, or DCX was counted in specific brain regions using an optical dissector, or estimated by quantitative confocal immunohistochemistry or optical density, as described previously.

Tsc2+/- mice [4] = test: Quantitative confocal immunohistochemistry of synaptophysin (SY38) in hippocampus; format: in vivo, mouse; conditions: i.p. loading 92 μmol/kg then 4.6 μmol/kg twice daily, two and a half days
Description: as §1, with “eNMDAR” left out, “Tsc2^+/-” for “Tsc2^+/−”, “Tsc2+/-” for “Tsc2+/−”

SMILES: CC12CC3CC(C)(C1)CC(N)(C3)C2 [memantine, reference compound]
- phosphorylation/activation of the p38 MAPK/MAPKAPK2/TSC2/mTORC1/S6K1 cascade on eNMDAR stimulation [1]: reduced this signaling
- outcome in human clinical trials for ASD/IDD [2]: failed in human clinical trials
- context discrimination (freezing time, training vs novel context) (Tsc2+/- mice [3]): failed to mitigate this deficit
- total number of NeuN+ cells in hippocampus (Mef2c-het mice): but not memantine (M), was significantly greater than in vehicle (V)-treated mice
- synaptophysin (SY38) staining in hippocampus (% area) (Tsc2+/- mice [4]): not statistically significant
